{"source": "patent EP4722213A1", "about": "“NITROGEN-CONTAINING FUNCTIONAL GROUP-SUBSTITUTED PYRIDAZINOPYRIDONE DERIVATIVE AND USE THEREOF” (Sichuan Huiyu Pharmaceutical Co., Ltd., priority 2023, dated 2024)", "molecular_target": "T1, SOS1 (Homo sapiens, UniProt Q07889)", "T1 sequence (Q07889 1-1333)": "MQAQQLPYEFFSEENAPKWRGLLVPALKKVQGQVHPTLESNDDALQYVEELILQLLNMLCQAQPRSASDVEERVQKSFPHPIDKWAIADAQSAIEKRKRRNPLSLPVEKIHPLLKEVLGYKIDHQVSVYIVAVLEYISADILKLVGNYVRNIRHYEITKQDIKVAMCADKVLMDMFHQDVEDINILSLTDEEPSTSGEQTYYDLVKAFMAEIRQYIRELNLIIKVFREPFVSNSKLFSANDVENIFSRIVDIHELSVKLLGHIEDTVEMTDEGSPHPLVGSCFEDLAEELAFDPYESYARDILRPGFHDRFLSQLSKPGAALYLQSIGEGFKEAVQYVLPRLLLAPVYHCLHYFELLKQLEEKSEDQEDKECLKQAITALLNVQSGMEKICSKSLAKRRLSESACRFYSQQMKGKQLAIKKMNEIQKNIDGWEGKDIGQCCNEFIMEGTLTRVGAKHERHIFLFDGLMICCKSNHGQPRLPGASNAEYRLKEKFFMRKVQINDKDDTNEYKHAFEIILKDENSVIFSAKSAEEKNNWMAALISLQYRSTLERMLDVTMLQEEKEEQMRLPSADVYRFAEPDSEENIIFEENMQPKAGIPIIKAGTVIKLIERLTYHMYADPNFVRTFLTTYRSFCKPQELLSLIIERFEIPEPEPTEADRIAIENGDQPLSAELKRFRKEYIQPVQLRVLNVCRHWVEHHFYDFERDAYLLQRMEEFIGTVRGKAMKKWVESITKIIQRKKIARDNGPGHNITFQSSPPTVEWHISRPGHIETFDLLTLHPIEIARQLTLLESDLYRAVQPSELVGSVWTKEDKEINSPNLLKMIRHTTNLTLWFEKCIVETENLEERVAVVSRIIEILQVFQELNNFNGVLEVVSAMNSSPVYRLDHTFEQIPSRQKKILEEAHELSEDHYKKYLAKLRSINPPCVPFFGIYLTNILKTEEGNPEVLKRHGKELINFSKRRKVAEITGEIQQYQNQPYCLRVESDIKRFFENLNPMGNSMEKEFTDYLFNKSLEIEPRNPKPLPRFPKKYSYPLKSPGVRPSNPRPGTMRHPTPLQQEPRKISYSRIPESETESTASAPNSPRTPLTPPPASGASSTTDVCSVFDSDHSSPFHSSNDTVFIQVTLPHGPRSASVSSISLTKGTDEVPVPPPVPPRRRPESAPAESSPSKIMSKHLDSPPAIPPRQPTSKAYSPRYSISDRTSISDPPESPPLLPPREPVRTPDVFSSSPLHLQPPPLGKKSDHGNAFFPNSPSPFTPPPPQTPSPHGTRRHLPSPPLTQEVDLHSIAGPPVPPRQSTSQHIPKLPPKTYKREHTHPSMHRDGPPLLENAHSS", "experiment": "biochemical", "note": "Structures can show the parent of a compound that is named as a salt."}
{"smiles": "C[C@@H](Nc1nnc(N2CCN(C3CCCC3)CC2)c2cc(=O)n(C)cc12)c1cccc(C(F)F)c1F", "note": "[Example 146, (R)-1-(4-cyclopentylpiperazin-1-yl)-4-((1-(3-(difluoromethyl)-2-fluorophenyl)ethyl)amino)-6-methylpyrido[3,4-d]pyridazin-7(6H)-one]", "values": [{"measurement": "IC50", "result": 12.5, "unit": "nM"}]}
{"smiles": "Cc1c(C#N)cccc1[C@@H](C)Nc1nnc(N2CC3CC3C2)c2cc(=O)n(C3(C)CC3)cc12", "note": "(stereo partly drawn) [Example 46, 3-((1R)-1-((1-(3-azabicyclo[3.1.0]hexan-3-yl)-6-(1-methylcyclopropyl)-7-oxo-6,7-dihydropyrido[3,4-d]pyridazin-4-yl)amino)ethyl)-2-methylbenzonitrile]", "values": [{"measurement": "IC50", "result": 9.3, "unit": "nM"}]}
{"smiles": "C[C@@H](Nc1nnc(N2CCC3(CC2)CNC(=O)C3)c2cc(=O)n(C3(C)CC3)cc12)c1cccc(C(F)F)c1F", "note": "[Example 204, (R)-4-((1-(3-(difluoromethyl)-2-fluorophenyl)ethyl)amino)-6-(1-methylcyclopropyl)-1-(3-oxo-2,8-diazaspiro[4.5]decan-8-yl)pyrido[3,4-d]pyridazin-7(6H)-one]", "values": [{"measurement": "IC50", "result": 8, "unit": "nM"}]}
{"smiles": "C[C@@H](Nc1nnc(N2CCN(C3CC3)CC2)c2cc(=O)n(C3(C)CC3)cc12)c1cccc(C(F)(F)F)c1", "note": "[Example 181, (R)-1-(4-cyclopropylpiperazin-1-yl)-6-(1-methylcyclopropyl)-4-((1-(3-(trifluoromethyl)phenyl)ethyl)amino)pyr ido[3,4-d]pyridazin-7(6H)-one formate]", "values": [{"measurement": "IC50", "result": 7.8, "unit": "nM"}]}
{"smiles": "C[C@@H](Nc1nnc(N2CCN(C)CC2)c2cc(=O)n(C3(C)CC3)cc12)c1cccc(S(F)(F)(F)(F)F)c1", "note": "[Example 214, (R)-6-(1-methylcyclopropyl)-1-(4-methylpiperazin-1-yl)-4-((1-(3-(pentafluoro-λ^6-sulfaneyl)phenyl)ethyl)amino)pyrido[3,4-d]pyridazin-7(6H)-one formate]", "values": [{"measurement": "IC50", "result": 5, "unit": "nM"}]}
{"smiles": "C[C@@H](Nc1nnc(N2CCN(C)CC2)c2cc(=O)n(C3CCN(C)CC3)cc12)c1cccc(C(F)F)c1F", "note": "[Example 223, (R)-4-((1-(3-(difluoromethyl)-2-fluorophenyl)ethyl)amino)-1-(4-methylpiperazin-1-yl)-6-(1-methylpiperidin-4-yl)pyrido[3,4-d]pyridazin-7(6H)-one]", "values": [{"measurement": "IC50", "result": 5.4, "unit": "nM"}]}
{"smiles": "C[C@@H](Nc1nnc(N2CC3(COC3)C2)c2cc(=O)n(C3(C)CC3)cc12)c1cccc(C(F)F)c1F", "note": "[Example 190, (R)-4-((1-(3-(difluoromethyl)-2-fluorophenyl)ethyl)amino)-6-(1-methylcyclopropyl)-1-(2-oxa-6-azaspiro[3.3]heptan-6-yl)pyrido[3,4-d]pyridazin-7(6H)-one]", "values": [{"measurement": "IC50", "result": 4.2, "unit": "nM"}]}
{"smiles": "Cc1c(C#N)cccc1[C@@H](C)Nc1nnc(N2CCN(C)CC2)c2cc(=O)n(C3CC3)cc12", "note": "[Example 87, (R)-3-(1-((6-cyclopropyl-1-(4-methylpiperazin-1-yl)-7-oxo-6,7-dihydropyrido[3,4-d]pyridazin-4-yl)amino)ethyl)-2-methylbenzonitrile]", "values": [{"measurement": "IC50", "result": 5.7, "unit": "nM"}]}
{"smiles": "Cc1c(C#N)cccc1[C@@H](C)Nc1nnc(N(C)C)c2cc(=O)n(C3(C)CC3)cc12", "note": "[Example 84, (R)-3-(1-((1-(dimethylamino)-6-(1-methylcyclopropyl)-7-oxo-6,7-dihydropyrido[3,4-d]pyridazin-4-yl)amino)ethyl)-2-methylbenzonitrile]", "values": [{"measurement": "IC50", "result": 18.7, "unit": "nM"}]}
{"smiles": "Cc1c(C#N)cccc1[C@@H](C)Nc1nnc(N2CC(F)(F)C2)c2cc(=O)n(C3CC3)cc12", "note": "[Example 41, (R)-3-(1-((6-cyclopropyl-1-(3,3-difluoroazetidin-1-yl)-7-oxo-6,7-dihydropyrido[3,4-d]pyridazin-4-yl)amino)ethyl)-2-methylbenzonitrile]", "values": [{"measurement": "IC50", "result": 57.9, "unit": "nM"}]}
{"smiles": "Cc1cc(N)cc([C@@H](C)Nc2nnc(N3CCN(C(C)C)CC3)c3cc(=O)n(C4(C)CC4)cc23)c1F", "note": "[Example 161, (R)-4-((1-(5-amino-2-fluoro-3-methylphenyl)ethyl)amino)-1-(4-isopropylpiperazin-1-yl)-6-(1-methylcyclopropyl) pyrido[3,4-d]pyridazin-7(6H)-one]", "values": [{"measurement": "IC50", "result": 5.2, "unit": "nM"}]}
{"smiles": "CNc1nnc(N[C@H](C)c2cccc(C#N)c2C)c2cn(C3(C)CC3)c(=O)cc12", "note": "[Example 83, (R)-2-methyl-3-(1-((1-(methylamino)-6-(1-methylcyclopropyl)-7-oxo-6,7-dihydropyrido[3,4-d]pyridazin-4-yl)amino)ethyl)benzonitrile]", "values": [{"measurement": "IC50", "result": 5.6, "unit": "nM"}]}
{"smiles": "Cc1c(C#N)cccc1[C@@H](C)Nc1nnc(N2CC[C@H](CO)C2)c2cc(=O)n(N3CC4CCCC4C3)cc12", "note": "(stereo partly drawn) [Example 166, 3-((1R)-1-((6-(hexahydrocyclopenta[c]pyrrol-2(1H)-yl)-1-((S)-3-(hydroxymethyl)pyrrolidin-1-yl)-7-oxo-6,7-dihydropyrido[3,4-d]pyridazin-4-yl)amino)ethyl)-2-methylbenzonitrile]", "values": [{"measurement": "IC50", "result": 9.7, "unit": "nM"}]}
{"smiles": "C[C@@H](Nc1nnc(N2CCOCC2)c2cc(=O)n(C3(C)CC3)cc12)c1cccc(C(F)F)c1F", "note": "[Example 7, (R)-4-((1-(3-(difluoromethyl)-2-fluorophenyl)ethyl)amino)-6-(1-methylcyclopropyl)-1-morpholinopyrido[3 ,4-d]pyridazin-7(6H)-one]", "values": [{"measurement": "IC50", "result": 17.7, "unit": "nM"}]}
{"smiles": "C[C@@H](Nc1nnc(N2CCS(=O)(=O)CC2)c2cc(=O)n(C3(C)CC3)cc12)c1cccc(C(F)F)c1F", "note": "[Example 27, (R)-4-((1-(3-(difluoromethyl)-2-fluorophenyl)ethyl)amino)-1-(1,1-dioxidothiomorpholino)-6-(1-methylcyclopropyl) pyrido[3,4-d]pyridazin-7(6H)-one]", "values": [{"measurement": "IC50", "result": 16.5, "unit": "nM"}]}
{"smiles": "Cc1c([C@@H](C)Nc2nnc(N3CCC(F)(F)C3)c3cc(=O)n(C4CC4)cc23)cccc1C(F)(F)F", "note": "[Example 55, (R)-6-cyclopropyl-1-(3,3-difluoropyrrolidin-1-yl)-4-((1-(2-methyl-3-(trifluoromethyl)phenyl)ethyl)amino)pyr ido[3,4-d]pyridazin-7(6H)-one]", "values": [{"measurement": "IC50", "result": 49.2, "unit": "nM"}]}
{"smiles": "C[C@@H](Nc1nnc(N(C)CCN(C)C)c2cc(=O)n(C3(C)CC3)cc12)c1cccc(C(F)F)c1F", "note": "[Example 124, (R)-4-((1-(3-(difluoromethyl)-2-fluorophenyl)ethyl)amino)-1-((2-(dimethylamino)ethyl)(methyl)amino)-6-(1-methylcyclopropyl) pyrido[3,4-d]pyridazin-7(6H)-one formate]", "values": [{"measurement": "IC50", "result": 5.8, "unit": "nM"}]}
{"smiles": "Cc1c(C#N)cccc1[C@@H](C)Nc1nnc(N2CCC(F)(F)CC2)c2cc(=O)n(C3(C)CC3)cc12", "note": "[Example 47, (R)-3-(1-((1-(4,4-difluoropiperidin-1-yl)-6-(1-methylcyclopropyl)-7-oxo-6,7-dihydropyrido[3,4-d]pyridazin-4-yl)amino)ethyl)-2-methylbenzonitrile]", "values": [{"measurement": "IC50", "result": 66.2, "unit": "nM"}]}
{"smiles": "Cc1c([C@@H](C)Nc2nnc(N(C)C)c3cc(=O)n(C4CC4)cc23)cccc1C(F)(F)F", "note": "[Example 51, (R)-6-cyclopropyl-1-(dimethylamino)-4-((1-(2-methyl-3-(trifluoromethyl)phenyl)ethyl)amino)pyr ido[3,4-d]pyridazin-7(6H)-one]", "values": [{"measurement": "IC50", "result": 11.8, "unit": "nM"}]}
{"smiles": "C[C@@H](Nc1nnc(N2CCN(C3CCCC3)CC2)c2cc(=O)n(C3(C)CC3)cc12)c1cccc(C(F)(F)F)c1F", "note": "[Example 171, (R)-4-((1-(2-fluoro-3-(trifluoromethyl)phenyl)ethyl)amino)-1-(4-cyclopentylpiperazin-1-yl)-6-(1-methylcyclopropyl) pyrido[3,4-d]pyridazin-7(6H)-one]", "values": [{"measurement": "IC50", "result": 5, "unit": "nM"}]}
{"smiles": "C[C@@H](Nc1nnc(N2CCN(C3CC3)CC2)c2cc(=O)n(C3(C)CC3)cc12)c1cccc(C(F)F)c1F", "note": "[Example 218, (R)-1-(4-cyclopropylpiperazin-1-yl)-4-((1-(3-(difluoromethyl)-2-fluorophenyl)ethyl)amino)-6-(1-methylcyclopropyl) pyrido[3,4-d]pyridazin-7(6H)-one]", "values": [{"measurement": "IC50", "result": 6, "unit": "nM"}]}
{"smiles": "C[C@@H](Nc1nnc(NN2CCOCC2)c2cc(=O)n(C3(C)CC3)cc12)c1cccc(C(F)(F)F)c1", "note": "[Example 158, (R)-6-(1-methylcyclopropyl)-1-(morpholinoamino)-4-((1-(3-(trifluoromethyl)phenyl)ethyl)amino)pyr ido[3,4-d]pyridazin-7(6H)-one formate]", "values": [{"measurement": "IC50", "result": 6.9, "unit": "nM"}]}
